Measurements published in patent US20120283175A1, “ANTIBACTERIAL COMPOSITIONS” (Achaogen, Inc., priority 2009, published 2012).
Converted amounts (≈) assume the structure as drawn.

Assays:
E. coli ATCC25922 = test: MIC by broth microdilution, wild type strain ATCC25922; type: cell-based
envA+ (D21) E. coli = test: MIC by broth microdilution, isogenic envA+ strain; type: cell-based
envA1 (D22) E. coli = test: MIC by broth microdilution, isogenic envA1 mutant strain; type: cell-based
K. pneumo. (ATCC43816) = test: Neutropenic thigh in vivo efficacy model (mice); parameters: species or system Klebsiella pneumoniae
[1] = system: P. aeruginosa (ATCC27853); details: P. aeruginosa (ATCC27853); summary

CN[C@H](CC(C)C)C(=O)N[C@H]1C(=O)N[C@@H](CC(N)=O)C(=O)N[C@H]2C(=O)N[C@H]3C(=O)N[C@H](C(=O)N[C@H](C(=O)O)c4cc(O)cc(O)c4-c4cc3ccc4O)[C@H](O)c3ccc(c(Cl)c3)Oc3cc2cc(c3O[C@@H]2O[C@H](CO)[C@@H](O)[C@H](O)[C@H]2O[C@H]2C[C@](C)(N)[C@H](O)[C@H](C)O2)Oc2ccc(cc2Cl)[C@H]1O [Vancomycin, vancomycin]
MIC (E. coli ATCC25922): > 256 µg/mL | MIC (envA+ (D21) E. coli): > 256 µg/mL | MIC (envA1 (D22) E. coli; Strain envA1 (D21)): 32 µg/mL (≈ 22.1 µM) | Fold decrease in MIC (envA+/envA1) (envA1 (D22) E. coli; envA+ vs envA1 E. coli): ≧8 | in vivo synergy with multiple LpxC inhibitors (K. pneumo. (ATCC43816); K. pneumo. (ATCC43816), summary): surprising in vivo synergy | reduction in CFU, single agent (K. pneumo. (ATCC43816); vancomycin alone at 440 mg/kg/day, ATCC43816): no significant reduction in CFU | in vivo synergy with LpxC inhibitors [1]: surprising in vivo synergy
